From publication PMC12203311, “Design, synthesis, in silico and in vitro evaluation of pyrrole–indole hybrids as dual tubulin and aromatase inhibitors with potent anticancer activities” (RSC Advances, 2025)

Legend:
Assay in all cases: NCI60 five-dose screen
HCT-15 = type: cell-based; conditions: Homo sapiens, HCT-15, colon cancer; for CC50: read-out: LC50 (the source's name)
UO-31 = type: cell-based; conditions: Homo sapiens, UO-31, renal cancer; for CC50: read-out: LC50 (the source's name)
HS 578T = type: cell-based; conditions: Homo sapiens, breast cancer; for CC50: read-out: LC50 (the source's name)
T-47D = type: cell-based; conditions: Homo sapiens, T47D, breast cancer; for CC50: read-out: LC50 (the source's name)
NCI/ADR-RES = type: cell-based, human; conditions: Homo sapiens, ovarian cancer; for CC50: read-out: LC50 (the source's name)
KM12 = type: cell-based; conditions: Homo sapiens, KM12, colon cancer; for CC50: read-out: LC50 (the source's name)
BT-549 = type: cell-based; conditions: Homo sapiens, BT-549, breast cancer; for CC50: read-out: LC50 (the source's name)
HOP-62 = type: cell-based; conditions: Homo sapiens, HOP-62, NSC lung cancer; for CC50: read-out: LC50 (the source's name)
SF-268 = type: cell-based; conditions: Homo sapiens, SF-268, CNS cancer; for CC50: read-out: LC50 (the source's name)
SW-620 = type: cell-based; conditions: Homo sapiens, SW-620, colon cancer; for CC50: read-out: LC50 (the source's name)
PC-3 = type: cell-based; conditions: Homo sapiens, PC-3, prostate cancer; for CC50: read-out: LC50 (the source's name)
EKVX = type: cell-based; conditions: Homo sapiens, NSC lung cancer; for CC50: read-out: LC50 (the source's name)
SN12C = type: cell-based; conditions: Homo sapiens, renal cancer; for CC50: read-out: LC50 (the source's name)
A498 = type: cell-based; conditions: Homo sapiens, A498, renal cancer; for CC50: read-out: LC50 (the source's name)
SK-MEL-2 = type: cell-based; conditions: Homo sapiens, SK-MEL-2, melanoma; for CC50: read-out: LC50 (the source's name)
SF-295 = type: cell-based; conditions: Homo sapiens, SF-295, CNS cancer; for CC50: read-out: LC50 (the source's name)
MDA-MB-468 = type: cell-based; conditions: Homo sapiens, MDA-MB-468, breast cancer; for CC50: read-out: LC50 (the source's name)
SK-OV-3 = type: cell-based; conditions: Homo sapiens, SK-OV-3, ovarian cancer; for CC50: read-out: LC50 (the source's name)
NCI-H322M = type: cell-based; conditions: Homo sapiens, NSC lung cancer; for CC50: read-out: LC50 (the source's name)
SK-MEL-28 = type: cell-based; conditions: Homo sapiens, SK-MEL-28, melanoma; for CC50: read-out: LC50 (the source's name)
IGROV1 = type: cell-based; conditions: Homo sapiens, IGROV-1; IGROV1, ovarian cancer
MALME-3M = type: cell-based; conditions: Homo sapiens, melanoma; for CC50: read-out: LC50 (the source's name)
NCI-H23 = type: cell-based; conditions: Homo sapiens, NCI-H23, NSC lung cancer; for CC50: read-out: LC50 (the source's name)
HL-60 (TB) = type: cell-based; conditions: Homo sapiens, leukemia; for CC50: read-out: LC50 (the source's name)
HOP-92 = type: cell-based; conditions: Homo sapiens, HOP-92, NSC lung cancer; for CC50: read-out: LC50 (the source's name)
MDA-MB-231/ATCC = type: cell-based; conditions: Homo sapiens, breast cancer; for CC50: read-out: LC50 (the source's name)
OVCAR-3 = type: cell-based; conditions: Homo sapiens, OVCAR-3, ovarian cancer; for CC50: read-out: LC50 (the source's name)
A549/ATCC = type: cell-based; conditions: Homo sapiens, NSC lung cancer; for CC50: read-out: LC50 (the source's name)
COLO 205 = type: cell-based, human; conditions: Homo sapiens; for CC50: COLO 205, COLO 205, colon cancer, read-out: LC50 (the source's name); for GI50: COLO 205, colon cancer
UACC-62 = type: cell-based; conditions: Homo sapiens, UACC-62, melanoma; for CC50: read-out: LC50 (the source's name)
RXF 393 = type: cell-based; conditions: Homo sapiens, RXF 393, renal cancer; for CC50: read-out: LC50 (the source's name)
TK-10 = type: cell-based; conditions: Homo sapiens, TK-10, renal cancer; for CC50: read-out: LC50 (the source's name)

Structure (SMILES): O=C(N/N=C/c1cc[nH]c1)c1[nH]c2ccc(Br)cc2c1-c1ccccc1 [Derivative 3b, (E)-N′-((1H-Pyrrol-3-yl)methylene)-5-bromo-3-phenyl-1H-indole-2-carbohydrazide]
- GI50 (HCT-15): 0.918 µM
- CC50 (HCT-15): 34 µM
- GI50 (UO-31): 1.66 µM
- CC50 (UO-31): 41 µM
- GI50 (HS 578T): 1.31 µM
- CC50 (HS 578T): > 100 µM
- GI50 (T-47D): 3.49 µM
- CC50 (T-47D): > 100 µM
- GI50 (NCI/ADR-RES): 0.636 µM
- CC50 (NCI/ADR-RES): 27.1 µM
- GI50 (KM12): 0.996 µM
- CC50 (KM12): 37.8 µM
- GI50 (BT-549): 4.53 µM
- CC50 (BT-549): 52.3 µM
- GI50 (HOP-62): 2.01 µM
- CC50 (HOP-62): 61.4 µM
- GI50 (SF-268): 2.41 µM
- CC50 (SF-268): 59.1 µM
- GI50 (SW-620): 0.548 µM
- CC50 (SW-620): 49.4 µM
- GI50 (PC-3): 2 µM
- CC50 (PC-3): > 100 µM
- GI50 (EKVX): 4.41 µM
- CC50 (EKVX): 41.7 µM
- GI50 (SN12C): 1.49 µM
- CC50 (SN12C): 37.7 µM
- GI50 (A498): 12.7 µM
- CC50 (A498): 54.6 µM
- GI50 (SK-MEL-2): 2.48 µM
- CC50 (SK-MEL-2): 38.4 µM
- GI50 (SF-295): 1.94 µM
- CC50 (SF-295): 33.8 µM
- GI50 (MDA-MB-468): 0.593 µM
- CC50 (MDA-MB-468): 24.2 µM
- GI50 (SK-OV-3): 5.59 µM
- CC50 (SK-OV-3): 71.9 µM
- GI50 (NCI-H322M): 2.38 µM
- CC50 (NCI-H322M): 37.2 µM
- GI50 (SK-MEL-28): 5.75 µM
- CC50 (SK-MEL-28): 44.4 µM
- GI50 (IGROV1): 1.27 µM
- GI50 (MALME-3M): 3.46 µM
- CC50 (MALME-3M): 48.3 µM
- GI50 (NCI-H23): 1.87 µM
- CC50 (NCI-H23): 33.9 µM
- GI50 (HL-60 (TB)): 0.598 µM
- CC50 (HL-60 (TB)): > 100 µM
- GI50 (HOP-92): 1.87 µM
- CC50 (HOP-92): 50.3 µM
- GI50 (MDA-MB-231/ATCC): 1.62 µM
- CC50 (MDA-MB-231/ATCC): 26.4 µM
- GI50 (OVCAR-3): 1.09 µM
- CC50 (OVCAR-3): 31.9 µM
- GI50 (A549/ATCC): 1.61 µM
- CC50 (A549/ATCC): 52.6 µM
- CC50 (COLO 205): 20.4 µM
- GI50 (COLO 205): 1.23 µM
- GI50 (UACC-62): 1.03 µM
- CC50 (UACC-62): 41.3 µM
- GI50 (RXF 393): 1.78 µM
- CC50 (RXF 393): 46.5 µM
- GI50 (TK-10): 11.1 µM
- CC50 (TK-10): 58 µM

Structure (SMILES): Cc1cc(C)c(/C=N/NC(=O)c2[nH]c3ccc(Br)cc3c2-c2ccccc2)[nH]1 [Derivative 3c, (E)-5-Bromo-N′-((3,5-dimethyl-1H-pyrrol-2-yl)methylene)-3-phenyl-1H-2-carbohydrazide]
- GI50 (HCT-15): 2.91 µM
- CC50 (HCT-15): 37.2 µM
- GI50 (UO-31): 1.77 µM
- CC50 (UO-31): 33.8 µM
- GI50 (HS 578T): 2.31 µM
- CC50 (HS 578T): > 100 µM
- GI50 (T-47D): 4.68 µM
- CC50 (T-47D): 77.6 µM
- GI50 (NCI/ADR-RES): 2.11 µM
- CC50 (NCI/ADR-RES): 19.3 µM
- GI50 (KM12): 2.96 µM
- CC50 (KM12): 35.4 µM
- GI50 (BT-549): 5.04 µM
- CC50 (BT-549): 47.9 µM
- GI50 (HOP-62): 2.97 µM
- CC50 (HOP-62): 69.3 µM
- GI50 (SF-268): 2.98 µM
- CC50 (SF-268): 53.2 µM
- GI50 (SW-620): 3.06 µM
- CC50 (SW-620): 42 µM
- GI50 (PC-3): 2.06 µM
- CC50 (PC-3): 47.6 µM
- GI50 (EKVX): 3.24 µM
- CC50 (EKVX): 35.4 µM
- GI50 (SN12C): 2.58 µM
- CC50 (SN12C): 32.3 µM
- GI50 (A498): 8.25 µM
- CC50 (A498): 46.9 µM
- GI50 (SK-MEL-2): 3.37 µM
- CC50 (SK-MEL-2): 41.7 µM
- GI50 (SF-295): 2.76 µM
- CC50 (SF-295): 29.5 µM
- GI50 (MDA-MB-468): 2 µM
- CC50 (MDA-MB-468): 26.4 µM
- GI50 (SK-OV-3): 6.81 µM
- CC50 (SK-OV-3): 70.8 µM
- GI50 (NCI-H322M): 2.69 µM
- CC50 (NCI-H322M): 38.7 µM
- GI50 (SK-MEL-28): 3.81 µM
- CC50 (SK-MEL-28): 38.8 µM
- GI50 (IGROV1): 2.47 µM
- GI50 (MALME-3M): 3.16 µM
- CC50 (MALME-3M): 38.5 µM
- GI50 (NCI-H23): 2.59 µM
- CC50 (NCI-H23): 35.2 µM
- GI50 (HL-60 (TB)): 2.4 µM
- CC50 (HL-60 (TB)): > 100 µM
- GI50 (HOP-92): 2.61 µM
- CC50 (HOP-92): 43.5 µM
- GI50 (MDA-MB-231/ATCC): 2.78 µM
- CC50 (MDA-MB-231/ATCC): 32.8 µM
- GI50 (OVCAR-3): 2.53 µM
- CC50 (OVCAR-3): 36.4 µM
- GI50 (A549/ATCC): 3.82 µM
- CC50 (A549/ATCC): 45.4 µM
- CC50 (COLO 205): 52.3 µM
- GI50 (COLO 205): 3.25 µM
- GI50 (UACC-62): 2.36 µM
- CC50 (UACC-62): 32.4 µM
- GI50 (RXF 393): 2.26 µM
- CC50 (RXF 393): 35 µM
- GI50 (TK-10): 7.32 µM
- CC50 (TK-10): 45.2 µM
